Assays:
[1] = test system: L1210 leukemia; test: In vivo antitumor activity against L1210 leukemia in mice (survival time); set-up: species or system CDF1 mice; L1210 murine leukemia; conditions: for Survival Time: % T/C (mean day of death treated/control × 100): intraperitoneal
Method: Then distilled water (4 ml) was added to the above to make 50 mg/kg solution. Serial two-fold dilutions were made in distilled water from the 50 mg/kg solution for the remaining three concentrations. An unformulated control solution was prepared by dissolving the title compound in distilled water and was used while it remained clear.
The test was carried out as follows. On day 0, CDF1 mice were injected with 1×10^5 L1210 murine leukemia cells intraperitoneally. On day 1 formulated and unformulated title compound were injected intraperitoneally and the injections continued, once daily through day 9. Mice were observed until death.

[2] = in vivo
Method: A comparative test was performed on the title compound to evaluate possible lethality differences between compositions described herein and compositions prepared by dissolving in water. […] Following compound administration, mortality was evaluated twice daily for 14 days.

In the case of `Cc1c(-c2ccc(-c3ccccc3F)cc2)nc2ccc(F)cc2c1C(=O)[O-].[Na+]`, the “Survival Time: % T/C (mean day of death treated/control × 100)” value ([1]; 6.25 mg/kg/day × 9 days) is reported as 156%, the “Survival Time: % T/C (mean day of death treated/control × 100)” value ([1]; 12.5 mg/kg/day × 9 days) is reported as 167% and the “Survival Time: % T/C (mean day of death treated/control × 100)” value ([1]; 25 mg/kg/day × 9 days) is reported as 169%. For the same molecule, the “Survival Time: % T/C (mean day of death treated/control × 100)” value ([1]; 50 mg/kg/day × 9 days) was 89%, the “effect of sodium cholate and glycine on antitumor activity” value ([1]; formulated vs unformulated) was “no effect on the antitumor activity” and the LD50 at 336 h ([2]; mouse, in vivo) was 156 mg/kg. For the same molecule, the “Slope of the response curve” value ([2]; vehicle D.I. H2O, pH = 8.5, single parenteral dose, female mice) was 1.18.

— patent publication US4889862A, “Freeze-dried pharmaceutical compositions of phenylquinoline carboxylic acids” (E. I. Du Pont de Nemours and Company, priority 1987, dated 1989)
